Data on 5 compounds can be found in patent publication US8614021B2, “Agents for enhanced charge transport across microbial membranes” (The United States of America as represented by the …, priority 2010, dated 2013).

Entries after “also recorded” stand apart in the source; their conditions may differ.

Series [1] concerns Baker's yeast. Description: Yeast cell staining, confocal/epi-fluorescence imaging. It is filed as cell-based. The settings on record: for accumulation within cell membranes (fluorescence images): 100 μM, 1 hour of shaking, excitation 488 nm.
Procedure: Stock solutions of DSSN+ and DSBN+ (1-5 mM, typically 5 mL) were prepared in pH 7.3 phosphate buffer. […] Cultures were never allowed to exceed an optical density of 6. In a typical cell staining run a 1 mL sample was transferred to 1.5 mL Eppendorf tube and the growth media was removed by centrifugation of cells followed by decanting of the growth media. The cells were then re-suspended in phosphate buffer and an appropriate volume of oligoelectrolyte stock solution was added to achieve a 10-100 μM concentration of DSSN+ or DSBN+. The cells were then shaken lightly for 10-180 min at room temperature. The cells can then be imaged directly or following buffer exchange via centrifugation and cell re-suspension. In an alternate procedure, as is the same staining (membrane incorporation) procedure performed with MFC inoculation samples, the cells are simply stained (by addition of COE stock solutions prepared in growth media to culture samples) and imaged directly in the original growth media. […] Sample preparation is completed by depositing a ˜3-6 μL aliquot of stained cell solution onto a traditional slide followed by a cover slip (in this case the slide is inverted and placed over a water or oil immersion objective interfaced with either a Nikon or Leica confocal fluorescence microscope). […]
FIG. 8 consists of two sets of confocal microscopy fluorescence images of Baker's yeast, each stained and imaged in a 100 μM solution of DSSN+ (FIG. 8A) or DSBN+ (FIG. 8B) after 1 hour of shaking without exchanging the staining media.
The ability of DSBN+ and DSSN+ to be passed on to or exist within cell membranes of subsequent yeast generations born over the course of MFC operation was also investigated. […] Cells from each of these aliquots were imaged using a confocal microscope in epi-fluorescence mode and brightfield mode. […] FIG. 11B is an epi-fluorescence and brightfield image (inset, lower left) of a small group of yeast cells removed from the same MFC on the fourth day of operation.
Series [2] concerns yeast. Description: Yeast microbial fuel cell (U-tube MFC) voltage production. It is filed as cell-based. To be noted: for Maximum voltage (Vmax): across a 10 kΩ resistor. The text has this: Two-chamber MFCs were constructed in a similar fashion as previously described (Milliken, C. E.; May, H. D. Appl. Microbiol. Biotechnol. 2007, 73, 1180-1189; Sund, C. J.; Wong, M. S.; Sumner, J. J. Biosens. Bioelectron. 2009, 24, 3144-3147; Sund, C. J.; McMasters, S.; Crittenden, S. R.; Harrell, L. E.; Sumner, J. J. Appl. Microbiol. Biotechnol. 2007, 76, 561-568) with some modifications and pictured in FIG. 9. The anodes and cathodes consisted of carbon felt (100% Activated Carbon Fiber Filter, CarboPur Technologies, Montreal, Canada), ⅛ inch thick, cut to the dimensions of 5 cm by 1 cm. The carbon felts were attached to 0.25 mm diameter titanium wires (AlfaAesar, Ward Hill, Mass.) as electrical leads. A new piece of Nafion® 117 (DuPont, Wilmington, Del., USA) was used for each fuel cell. Anode wires were passed through silicone rubber septa used to seal the anode compartment following inoculation while the cathode compartment was covered with a loose-fitting glass vial. Each fuel cell compartment was filled with 20 ml of media and autoclaved. Inoculation of MFCs consisted of addition of 300 μL of stained (25 μM COE) or unstained yeast stock solution (O.D.=1.75). Methylene blue was added separately as a stock solution (0.1% by weight, 2.67 mM) for the positive control runs employing this mediator. MFCs were incubated in an aerobic 30° C. incubator and the potential across a 10 kΩ resistor was measured and recorded every 10 seconds via a DAQPad-6016 and a custom LabView® VI (National Instruments, Austin, Tex., USA).
A U-tube type MFC (Milliken, C. E.; May, H. D. Appl. Microbiol. Biotechnol. 2007, 73, 1180-1189; Sund, C. J.; Wong, M. S.; Sumner, J. J. Biosens. Bioelectron. 2009, 24, 3144-3147; Sund, C. J.; McMasters, S.; Crittenden, S. R.; Harrell, L. E.; Sumner, J. J. Appl. Microbiol. Biotechnol. 2007, 76, 561-568) (FIG. 9) was employed to test and compare the performance of a series of yeast MFCs employing nM concentrations of DSSN+ and DSBN+ to the performance of a series of negative controls with no external mediator and a series of positive controls employing the common electron transport mediator methylene blue in μM concentrations. The details of MFC construction, preparation, and evaluation are discussed in detail in the section entitled “Microbial fuel cell preparation and assembly.” MFC performance was evaluated in terms of voltage instead of current. Voltage readings were obtained as a function of current across a 10 kΩ resistor.

Series [3] is described as follows: UV-Vis absorption and photoluminescence (PL) spectroscopy in solvents of varying polarity. The settings on record: for η (quantum efficiency): relative to a fluorescein standard at pH 12.
Source text: General photophysical and solvatochromatic features of the neutral (DSSN, DSBN) and charged (DSSN+, DSBN+) versions of each chromophore were probed by using UV-Vis absorption and photoluminescence (PL) spectroscopies.
Series [4] can be described thus: Cyclic voltammetry blocking experiment: transmembrane electron transport across sBLMs to aq. ferricyanide. To be noted: for transmembrane electron transport across sBLM (current in CV): 2 mol % in DMPC and DPPC sBLMs, aq. ferricyanide, 200 mV/s scan rate. As to the method: Bilayer membranes supported on glassy carbon electrodes were prepared according to a modified literature procedure (Huang, W.; Zhang, Z.; Han, X.; Tang, J.; Wang, J.; Dong, S.; Wang, E. Biophys. J. 2002, 83, 3245-3255; Wu, Z.; Tang, J.; Cheng, Z.; Yang, X.; Wang, E. Anal. Chem. 2000, 72, 6030-6033). […] Electrode surface modification was performed by applying a constant 1.5 V bias for four minutes to a freshly polished glassy carbon electrode submerged in a 0.1 M aq. NaOH solution. Upon completion of this process the electrode was dried via argon steam followed by deposition of a 5 μL aliquot of the desired DMPC membrane forming solution to the electrode surface. The solvent was allowed to evaporate and electrode was immediately placed into phosphate buffer (pH 7.4) to allow the bilayer to assemble over a 0.5 hour time period. The working electrode containing the supported bilayer lipid membrane (sBLM) was then used directly.
Cyclic voltammograms were collected at scan rates of 50-200 mV/sec using a standard three-electrode setup that employed a Pt wire counter electrode, a Ag/AgCl reference electrode and a glassy carbon working electrode (modified or unmodified). All runs were performed in aq. 0.5 M KCl electrolyte solution containing 1 mM potassium ferricyanide (the active redox and indicator species). Oxygen was removed from the system via bubbling Ar through the solution for several minutes prior to data collection. The working electrode was freshly polished between each run prior to voltammogram collection or sBLM formation followed by voltammogram collection. Data was collected within the range of 0-0.4 V potentials relative to Ag/AgCl.
OPVs within a saturated alkane thiol monolayer can facilitate charge tunneling from a metallic electrode to a tethered redox species (Dudek, S. P.; Sikes, H. D.; Chidsey, C. E. D. J. Am. Chem. Soc. 2001, 123, 8033-8038; Sikes, H. D.; Smalley, J. F.; Dudek, S. P.; Cook, A. R.; Newton, M. D.; Chidsey, C. E. D.; Feldberg, S. W. Science. 2001, 291, 1519-1523). A variation of this approach was used in which supported bilayer membranes (sBLM) containing DSSN+, DSBN+ and other control molecules were prepared on the surface of a glassy carbon electrode surface. The sBLM-modified electrodes were then employed in a series of ‘blocking’ experiments in which cyclic voltammetry was used to monitor the reversible […] of aqueous ferricyanide. The unmodified sBLM acts as an insulating layer between the working electrode and the solution containing ferricyanide thereby greatly suppressing the redox current (Wiegand, G.; Arribas-Layton, N.; Hillebrandt, H.; Sackmann, E.; Wagner, P. J. Phys. Chem. B. 2002, 106, 4245-4254; Żebrowska, A.; Krysiński, P.; ? otowski, Z. Bioelectrochemistry. 2002, 56, 179-184). […]

Series [5] is described as follows: Cyclic voltammetry, oxidation of the oligoelectrolytes (current/potential curves). It is filed as physicochemical. To be noted: vs. Ag/AgCl, 200 mV/s scan rate.
Series [6] is described as follows: UV-Vis absorbance and PL spectroscopy of oligoelectrolytes embedded in lipid bilayers (DMPC vesicles). To be noted: for εmax / λabs / λem / η: lipid bilayer; for blue (hypsochromic) shift in λem / red (bathochromic) shift in λabs: lipid bilayer (DMPC vesicle membranes) compared to water / pH 7.3 HEPES buffer; for η: relative to a fluorescein standard at pH 12.
Procedure: In order to prepare a typical membrane modified vesicle sample by sonication a methanolic DMPC solution containing a desired mol % DSBN+ was prepared (a typical solution is 1-5 mole % DSBN+ based on 50 micro-moles of DMPC). The methanol was slowly removed by argon flow while the solution was held at a constant 32-38° C. followed by vacuum oven drying at room temperature until dried to a constant weight. Next, enough H2O or pH 7 HEPES buffer was added to obtain a solution with a concentration of ˜1-20 mg/mL depending upon application (imaging or photoluminescence measurement for example). This solution was then sonicated at 40-50° C. for 0.5-7 hours, typically until the solution had lost most of its turbidity. This generates multi-lamellar vesicles. Uni-lamellar vesicles with diameters of ˜450 nm (with a somewhat broad size distribution based on cryo-TEM images) were formed as the resulting solution was filtered using 0.45 μm pore size syringe filters to yield a slightly turbid solution that must be further diluted to clarity with water or buffer in order to collect UV absorbance or photoluminescence spectra.
Efforts to modify the vesicle membranes with DSBN+ and DSSN+ followed modified literature procedures (Lin, A. J.; Slack, N. L.; Ahmad, A.; George, C. X.; Samuel, C. E.; Safinya, C. R. Biophys. J. 2003, 84, 3307-3316). First, a lipid stock solution containing the desired fraction of either DSSN+ or DSBN+, typically 1-5 mol % relative to lipid, was prepared in methanol. This lipid/COE stock solution was then heated and held above the transition temperature of the lipid (23° C. and 41° C. for DMPC and DPPC, respectively) as the solvent was removed via Argon flushing, followed by vacuum drying to a constant weight. The resulting lipid/COE solid was then suspended in pH=7.3 HEPES buffer to the desired concentration (1-10 mg/mL). Multi-lamellar vesicles were then formed by self-assembly upon sonication of the resulting solution. Uni-lamellar vesicles were prepared by filtration (using 0.45 or 0.2 μm pore size syringe filters) or by extrusion (Olson, F.; Hunt, C. A.; Szoka, F. C.; Vail, W. J.; Papahadjopoulos, D. Biochim. Biophys. Acta. 1979, 557, 9-23; Socaciu, C.; Bojarski, P.; Aberle, L.; Diehl, H. A. Biophys. Chem. 2002, 99, 1-15; Szoka, F.; Olson, F.; Heath, T.; Vail, W.; Mayhew, E.; Papahadjopoulos, D. Biochim. Biophys. Acta. 1980, 601, 559-571).

Regarding `C[N+](C)(C)CCCCCCN(CCCCCC[N+](C)(C)C)c1ccc(C=Cc2ccc(C=Cc3ccc(N(CCCCCC[N+](C)(C)C)CCCCCC[N+](C)(C)C)cc3)cc2)cc1.[I-].[I-].[I-].[I-]` [DSBN+, 1,4-bis(4′-(N,N-bis(6″-(N,N,N-trimethylammonium)hexyl)amino)-styryl)benzene tetraiodide], the “accumulation within cell membranes (fluorescence images)” value in series [1] is listed as “apparent preferential accumulation of the COEs within cell membranes”. Moreover, the “Maximum voltage (Vmax)” value in series [2] (190 nM) is about 55 mV. For the same compound, in series [3] (DMSO), the “εmax (molar extinction coefficient at λmax)” value was determined as 8.2 Lmol^−1cm^−1 × 10^−4, the λabs is listed as 419 nm, the λem is given as 511 nm and the “η (quantum efficiency)” value is on record as 0.86. In series [3] (water), the “εmax (molar extinction coefficient at λmax)” value is 6.0 Lmol^−1cm^−1 × 10^−4, the λabs is on record as 406 nm, the λem is 566 nm and the “η (quantum efficiency)” value amounted to 0.33. Also, the “transmembrane electron transport across sBLM (current in CV)” value in series [4] is recorded as “facilitate transmembrane electron transport; also recorded: display higher currents with respect to the control experiments”. Besides, the “oxidation potential (Eox)” value in series [5] is on record as about 0.55 V. Further, in series [6], the εmax was 4.8 Lmol^−1cm^−1 × 10^−4, the λabs was 422 nm, the λem is given as 474 nm and the “blue (hypsochromic) shift in λem” value is 92 nm. In series [6], the “red (bathochromic) shift in λabs” value was determined as 16 nm and the η worked out at 0.59.
For `CN(C)c1ccc2nc3ccc(=[N+](C)C)cc-3sc2c1` [methylene blue, reference compound], the “Maximum voltage (Vmax)” value in series [2] (13 μM) is given as about 40 mV.
Consider `ICCCCCCN(CCCCCCI)c1ccc(C=Cc2ccc(C=Cc3ccc(C=Cc4ccc(N(CCCCCCI)CCCCCCI)cc4)cc3)cc2)cc1` [DSSN, 4,4′-bis(4′-(N,N-bis(6″-iodohexyl)amino)styryl)stilbene], for which, in series [3] (DMSO), the “εmax (molar extinction coefficient at λmax)” value is on record as 9.6 Lmol^−1cm^−1 × 10^−4, the λabs was found to be 436 nm, the λem is recorded as 602 nm and the “η (quantum efficiency)” value stood at 0.73. In series [3] (THF), the “εmax (molar extinction coefficient at λmax)” value was determined as 10.6 Lmol^−1cm^−1 × 10^−4, the λabs is reported as 426 nm, the λem stood at 526 nm and the “η (quantum efficiency)” value was found to be 0.89. Moreover, in series [3] (toluene), the “εmax (molar extinction coefficient at λmax)” value is reported as 10.7 Lmol^−1cm^−1 × 10^−4, the λabs is given as 425 nm, the λem is given as 476 nm and the “η (quantum efficiency)” value worked out at 0.95.
For the compound `C[N+](C)(C)CCCCCCN(CCCCCC[N+](C)(C)C)c1ccc(/C=C/c2ccc(/C=C/c3ccc(/C=C/c4ccc(N(CCCCCC[N+](C)(C)C)CCCCCC[N+](C)(C)C)cc4)cc3)cc2)cc1` [DSSN+, 4,4′-bis(4′-(N,N-bis(6″-(N,N,N-trimethylammonium)hexyl)amino)-styryl)stilbene tetraiodide], the “accumulation within cell membranes (fluorescence images)” value in series [1] is listed as “apparent preferential accumulation of the COEs within cell membranes”. Also, the “presence of mediator in later cell generations” value in series [1] (yeast stained with 25 μM, removed from MFC on day 4 of operation) is given as “demonstrate the presence of this mediator in later cell generations”. Also, in series [2] (190 nM vs 13 μM methylene blue), the “increase in voltage production compared to methylene blue” value is reported as about 5 fold. In addition, the “Maximum voltage (Vmax)” value in series [2] (190 nM) is listed as about 200 mV. Further, in series [3] (DMSO), the “εmax (molar extinction coefficient at λmax)” value turned out to be 9.8 Lmol^−1cm^−1 × 10^−4, the λabs turned out to be 435 nm, the λem amounted to 596 nm and the “η (quantum efficiency)” value came to 0.71. In addition, in series [3] (water), the “εmax (molar extinction coefficient at λmax)” value turned out to be 6.6 Lmol^−1cm^−1 × 10^−4, the λabs stood at 412 nm, the λem is 594 nm and the “η (quantum efficiency)” value amounted to 0.06. Besides, the “transmembrane electron transport across sBLM (current in CV)” value in series [4] is given as “facilitate transmembrane electron transport; also recorded: display higher currents with respect to the control experiments”. Also, in series [4] (2 mol % in sBLMs), the “current response of sBLMs containing DSSN+ instead of DSBN+” value is “greater current response”. In series [5], the “oxidation potential (Eox)” value is on record as about 0.55 V. For the same compound, in series [6], the εmax came to 8.4 Lmol^−1cm^−1 × 10^−4, the λabs stood at 433 nm, the λem came to 532 nm and the “blue (hypsochromic) shift in λem” value turned out to be 62 nm. In series [6], the “red (bathochromic) shift in λabs” value is 21 nm and the η is 0.85.
Take `CCCCCCCCCCCCN(CCCCCCCCCCCC)CCCCCCCCCCCC` [TDA, tridodecylamine, reference compound]: the “transmembrane electron transport across sBLM (current in CV)” value in series [4] is recorded as “Little to no transmembrane electron transfer occurs; also recorded: featureless”.
